US20240398784A1, “C-LINKED ISOQUINOLINE AMIDES AS LRRK2 INHIBITORS, PHARMACEUTICAL COMPOSITIONS, AND USES THEREOF” (Merck Sharp & Dohme LLC, priority 2021, published 2024)

Target: LRRK2 G2019S (Homo sapiens, UniProt Q5S007, G2019S)
Assay: LRRK2 G2019S Km ATP LanthaScreen assay
Type: biochemical
Details: read-out: LRRK2 pIC50 (converted)

LRRK2 G2019S, sequence (Q5S007 whole entry G2019S): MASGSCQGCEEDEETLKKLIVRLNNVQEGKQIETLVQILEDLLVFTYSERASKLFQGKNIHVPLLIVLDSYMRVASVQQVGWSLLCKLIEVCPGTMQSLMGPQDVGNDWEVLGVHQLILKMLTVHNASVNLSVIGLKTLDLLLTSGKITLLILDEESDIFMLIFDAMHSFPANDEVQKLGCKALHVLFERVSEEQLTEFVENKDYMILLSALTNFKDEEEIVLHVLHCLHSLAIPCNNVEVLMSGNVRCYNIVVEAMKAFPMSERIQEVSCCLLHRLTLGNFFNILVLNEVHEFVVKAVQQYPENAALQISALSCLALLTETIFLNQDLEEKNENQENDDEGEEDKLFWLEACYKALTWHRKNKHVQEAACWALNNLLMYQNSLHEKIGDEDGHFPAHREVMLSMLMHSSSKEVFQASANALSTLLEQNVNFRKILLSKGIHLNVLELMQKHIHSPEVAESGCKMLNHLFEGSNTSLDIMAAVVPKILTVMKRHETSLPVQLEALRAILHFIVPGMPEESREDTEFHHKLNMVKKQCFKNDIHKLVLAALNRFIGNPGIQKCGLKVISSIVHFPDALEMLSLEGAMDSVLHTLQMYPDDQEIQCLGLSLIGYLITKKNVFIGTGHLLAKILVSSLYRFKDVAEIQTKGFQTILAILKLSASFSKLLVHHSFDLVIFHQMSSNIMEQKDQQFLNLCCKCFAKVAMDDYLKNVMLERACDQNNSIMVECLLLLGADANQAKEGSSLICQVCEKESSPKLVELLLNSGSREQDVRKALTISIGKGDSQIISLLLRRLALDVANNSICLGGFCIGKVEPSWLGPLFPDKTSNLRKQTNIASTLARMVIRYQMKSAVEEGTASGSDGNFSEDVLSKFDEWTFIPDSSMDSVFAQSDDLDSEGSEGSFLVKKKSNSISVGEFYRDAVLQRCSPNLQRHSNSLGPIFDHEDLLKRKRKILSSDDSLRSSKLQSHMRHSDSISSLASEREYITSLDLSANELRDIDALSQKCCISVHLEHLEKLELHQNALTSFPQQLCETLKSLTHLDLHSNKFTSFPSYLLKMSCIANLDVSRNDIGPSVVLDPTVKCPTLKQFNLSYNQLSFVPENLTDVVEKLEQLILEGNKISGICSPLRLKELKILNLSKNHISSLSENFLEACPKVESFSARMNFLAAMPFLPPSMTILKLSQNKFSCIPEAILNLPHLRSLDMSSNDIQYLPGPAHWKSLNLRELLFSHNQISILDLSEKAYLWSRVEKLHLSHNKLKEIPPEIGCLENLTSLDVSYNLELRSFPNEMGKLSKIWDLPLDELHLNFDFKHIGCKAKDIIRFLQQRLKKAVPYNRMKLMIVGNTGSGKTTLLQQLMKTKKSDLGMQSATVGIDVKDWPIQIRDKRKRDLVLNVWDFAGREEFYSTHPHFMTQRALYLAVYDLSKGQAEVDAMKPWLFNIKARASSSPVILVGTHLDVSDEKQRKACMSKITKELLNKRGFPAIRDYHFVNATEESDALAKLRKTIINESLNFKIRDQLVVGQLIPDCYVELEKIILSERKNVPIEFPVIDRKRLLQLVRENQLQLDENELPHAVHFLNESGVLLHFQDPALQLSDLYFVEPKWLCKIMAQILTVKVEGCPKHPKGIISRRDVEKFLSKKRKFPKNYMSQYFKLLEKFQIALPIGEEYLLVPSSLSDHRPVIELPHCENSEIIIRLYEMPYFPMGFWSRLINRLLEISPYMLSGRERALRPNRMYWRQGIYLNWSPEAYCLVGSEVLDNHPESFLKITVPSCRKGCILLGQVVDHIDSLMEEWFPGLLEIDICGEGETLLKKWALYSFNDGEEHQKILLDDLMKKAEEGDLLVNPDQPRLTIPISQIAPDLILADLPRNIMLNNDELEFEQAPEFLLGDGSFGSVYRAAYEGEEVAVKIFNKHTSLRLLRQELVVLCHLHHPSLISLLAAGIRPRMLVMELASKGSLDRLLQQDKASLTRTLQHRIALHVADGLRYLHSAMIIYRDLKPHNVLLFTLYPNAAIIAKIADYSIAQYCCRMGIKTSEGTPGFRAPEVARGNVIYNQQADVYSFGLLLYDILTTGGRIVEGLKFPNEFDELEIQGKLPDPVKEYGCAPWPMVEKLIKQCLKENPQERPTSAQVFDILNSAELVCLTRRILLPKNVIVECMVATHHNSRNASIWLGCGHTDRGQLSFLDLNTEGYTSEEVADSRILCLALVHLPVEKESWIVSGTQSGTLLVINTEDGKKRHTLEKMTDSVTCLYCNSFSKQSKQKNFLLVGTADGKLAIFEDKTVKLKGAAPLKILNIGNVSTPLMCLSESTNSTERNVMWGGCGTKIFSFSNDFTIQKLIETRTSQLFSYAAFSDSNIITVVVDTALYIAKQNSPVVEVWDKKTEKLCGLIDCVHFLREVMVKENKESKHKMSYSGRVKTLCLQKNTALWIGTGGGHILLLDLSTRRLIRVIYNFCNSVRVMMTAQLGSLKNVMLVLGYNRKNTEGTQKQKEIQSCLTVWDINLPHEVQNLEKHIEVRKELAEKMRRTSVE

## CC(C)(O)C1CC1C(=O)Nc1cc2cc(C3CCN(C4(C)COCC4F)CC3)c(Cl)cc2cn1 (single isomer, unassigned) [Ex-6.29, N-(7-chloro-6-(1-(4-fluoro-3-methyltetrahydrofuran-3-yl)piperidin-4-yl)isoquinolin-3-yl)-2-(2-hydroxypropan-2-yl)cyclopropane-1-carboxamide]
  IC50: 24.5 nM

## CC1(N2CCC(c3cc4cc(NC(=O)C5C6CCCOC65)ncc4cc3Cl)CC2)COCC1O (single isomer, unassigned) [Ex-4.12, N-(7-chloro-6-(1-(4-hydroxy-3-methyltetrahydrofuran-3-yl)piperidin-4-yl)isoquinolin-3-yl)-2-oxabicyclo[4.1.0]heptane-7-carboxamide]
  IC50: 0.398 nM

## CC1OCCC1N1CCC(c2cc3cc(NC(=O)C4CC4)ncc3cc2Cl)CC1 (single isomer, unassigned) [Ex-9.9, N-(7-chloro-6-(1-(2-methyltetrahydrofuran-3-yl)piperidin-4-yl)isoquinolin-3-yl)cyclopropanecarboxamide]
  IC50: 5.62 nM

## CC(C)(O)C1CC1C(=O)Nc1cc2cc(C3CCN(C4(C)COCC4O)CC3)c(Cl)cc2cn1 (centres unmarked) [Ex-2.20]
  IC50: 11.5 nM

## Cc1cc2cnc(NC(=O)C3CC3)cc2cc1C1CCN(C2(C)COC2)CC1 [Ex-15.1]
  IC50: 3.24 nM

## CC1(N2CCC(c3cc4cc(NC(=O)C5CC(c6ccccn6)C5)ncc4cc3Cl)CC2)COCC1O (single isomer, unassigned) [Ex-4.76, N-(7-chloro-6-(1-(4-hydroxy-3-methyltetrahydrofuran-3-yl)piperidin-4-yl)isoquinolin-3-yl)-3-(pyridin-2-yl)cyclobutane-1-carboxamide]
  IC50: 41.7 nM

## N#CC1(c2ccc3cnc(NC(=O)C4CC45CCOC5)cc3c2)CC12CC2 (centres unmarked) [Ex-2.63]
  IC50: 12.3 nM

## Cn1cc(CC(=O)Nc2cc3cc(C4CCN(C5(C)COCC5O)CC4)c(Cl)cc3cn2)c(Cl)n1 (centres unmarked) [Ex-3.12]
  IC50: 0.251 nM

## CC(C(=O)Nc1cc2cc(C3(C#N)CC34CC4)ccc2cn1)c1cnn(C)c1 (centres unmarked) [Ex-2.110]
  IC50: 0.575 nM

## CC1(C)C(C(=O)Nc2cc3cc(C4CCN(C5(C)COCC5O)CC4)c(Cl)cc3cn2)C1c1ccccn1 (single isomer, unassigned) [Ex-4.45, N-(7-chloro-6-(1-(4-hydroxy-3-methyltetrahydrofuran-3-yl)piperidin-4-yl)isoquinolin-3-yl)-2,2-dimethyl-3-(pyridin-2-yl)cyclopropane-1-carboxamide]
  IC50: 7.08 nM

## CC1(C)CC(C(=O)Nc2cc3cc(C4CCN(C5(C)CCOC5)CC4)c(Cl)cc3cn2)CCO1 (single isomer, unassigned) [Ex-6.44, N-(7-chloro-6-(1-(3-methyltetrahydrofuran-3-yl)piperidin-4-yl)isoquinolin-3-yl)-2,2-dimethyltetrahydro-2H-pyran-4-carboxamide]
  IC50: 5.37 nM

## CC1(N2CCC(c3cc4cc(NC(=O)C5CCC(C(F)(F)F)OC5)ncc4cc3Cl)CC2)COCC1O (centres unmarked) [Ex-2.61]
  IC50: 43.7 nM

## Cc1cc2cnc(NC(=O)C3CCOC(C)(C)C3)cc2cc1C1CCN(C2(C)COCC2O)CC1 (centres unmarked) [Ex-2.49]
  IC50: 0.513 nM

## CC1(C)CC(C(=O)Nc2cc3cc(C4CCC(N5CCC(F)C5)CC4)c(Cl)cc3cn2)CCO1 (single isomer, unassigned) [Ex-5.13, N-(7-chloro-6-(4-(3-fluoropyrrolidin-1-yl)cyclohexyl)isoquinolin-3-yl)-2,2-dimethyltetrahydro-2H-pyran-4-carboxamid]
  IC50: 479 nM

## CC1(N2CCC(c3cc4cc(NC(=O)C5CC56CCOCC6)ncc4cc3Cl)CC2)CCOC1 (centres unmarked) [Ex-2.23]
  IC50: 0.166 nM

## CC1(C)CC(C(=O)Nc2cc3cc(C4CCC(N5CCC(F)C5)CC4)c(Cl)cc3cn2)CCO1 (single isomer, unassigned) [Ex-5.11, N-(7-chloro-6-(4-(3-fluoropyrrolidin-1-yl)cyclohexyl)isoquinolin-3-yl)-2,2-dimethyltetrahydro-2H-pyran-4-carboxamid]
  IC50: 70.8 nM

## O=C(Nc1cc2cc(C3CCN(C4COC4)CC3)c(Cl)cc2cn1)C1CC12CCOCC2 (racemic) [Ex-1.9, Rac-N-(7-chloro-6-(1-(oxetan-3-yl)piperidin-4-yl)isoquinolin-3-yl)-6-oxaspiro[2.5]octane-1-carboxamide]
  IC50: 2.88 nM

## CC1(N2CCC(c3cc4cc(NC(=O)C5CC5C5CCOCC5)ncc4cc3Cl)CC2)COCC1F (centres unmarked) [Ex-2.92]
  IC50: 0.0813 nM

## CC1(N2CCC(c3cc4cc(NC(=O)C5CC56CCOCC6)ncc4cc3Cl)C(F)C2)COCC1O (single isomer, unassigned) [Ex-14.6, N-(7-chloro-6-(3-fluoro-1-(4-hydroxy-3-methyltetrahydrofuran-3-yl)piperidin-4-yl)isoquinolin-3-yl)-6-oxaspiro[2.5]octane-1-carboxamide]
  IC50: 2.57 nM

## CC1(C)CC(C(=O)Nc2cc3cc(C4CCC(N5CCC(F)C5)CC4)c(Cl)cc3cn2)CCO1 (single isomer, unassigned) [Ex-5.12, N-(7-chloro-6-(4-(3-fluoropyrrolidin-1-yl)cyclohexyl)isoquinolin-3-yl)-2,2-dimethyltetrahydro-2H-pyran-4-carboxamid]
  IC50: 2.24 nM

## Cn1cc(C(=O)Nc2cc3cc(C4CCN([C@]5(C)COC[C@@H]5O)CC4)c(Cl)cc3cn2)cn1 (single isomer, unassigned) [Ex-12.8, N-(7-chloro-6-(1-(4-hydroxy-3-methyltetrahydrofuran-3-yl)piperidin-4-yl)isoquinolin-3-yl)-1-methyl-1H-pyrazole-4-carboxamide]
  IC50: 316 nM

## CC1(N2CCC(c3cc4cc(NC(=O)C5CC56CCOCC6)ncc4cc3Cl)CC2)CCOC1 (centres unmarked) [Ex-2.22]
  IC50: 4.57 nM

## CC1(C)CC(C(=O)Nc2cc3cc(C4CCN(C5(C)COCC5F)CC4)c(Cl)cc3cn2)CCO1 (single isomer, unassigned) [Ex-6.37, N-(7-chloro-6-(1-(4-fluoro-3-methyltetrahydrofuran-3-yl)piperidin-4-yl)isoquinolin-3-yl)-2,2-dimethyltetrahydro-2H-pyran-4-carboxamide]
  IC50: 0.0813 nM

## CC1(N2CCC(c3cc4cc(NC(=O)C5CC56CCOC6)ncc4cc3Cl)CC2)COCC1F (single isomer, unassigned) [Ex-6.2, (R or S)-N-(7-chloro-6-(1-((3R,4R or 3S,4S)-4-fluoro-3-methyltetrahydrofuran-3-yl)piperidin-4-yl)isoquinolin-3-yl)-5-oxaspiro [2.4] heptane-1-carboxamide]
  IC50: 112 nM

## CC1(C)CC1C(=O)Nc1cc2cc(C3CCN(C4(C)COCC4O)CC3)c(Cl)cc2cn1 (centres unmarked) [Ex-2.12]
  IC50: 0.355 nM

## CC1(c2ccccn2)CC1C(=O)Nc1cc2cc(C3CCN(C4(C)COCC4O)CC3)c(Cl)cc2cn1 (centres unmarked) [Ex-2.91]
  IC50: 240 nM

## CCOC1CC2(C1)CC2C(=O)Nc1cc2cc(C3CCN(C4(C)COCC4O)CC3)c(Cl)cc2cn1 (single isomer, unassigned) [Ex-4.32, N-(7-chloro-6-(1-(4-hydroxy-3-methyltetrahydrofuran-3-yl)piperidin-4-yl)isoquinolin-3-yl)-5-ethoxyspiro[2.3]hexane-1-carboxamide]
  IC50: 2.57 nM

## CCC1C(C(=O)Nc2cc3cc(C4CCC(N5CC(F)C5)CC4)c(Cl)cc3cn2)C1c1cnn(C)c1 (single isomer, unassigned) [Ex-11.8, N-(7-chloro-6-(4-(3-fluoroazetidin-1-yl)cyclohexyl)isoquinolin-3-yl)-2-ethyl-3-(1-methyl-1H-pyrazol-4-yl)cyclopropane-1-carboxamide]
  IC50: 0.0813 nM

## Cn1ccc(C2CC2C(=O)Nc2cc3cc(C4CCN(C5(C)COCC5F)CC4)c(Cl)cc3cn2)n1 (centres unmarked) [Ex-2.84]
  IC50: 0.0813 nM
